Among the test systems are ACHN; MDA-MB-231; Hs-578T; MCF7; A549; MDA-N; MOLT-4; A498; IGROV-1; HOP-92; NCI/ADR-RES; NCI-H23; UACC-257; K562; SR; CCRF-CEM; RXF 393; LXFL 529; SK-MEL-5; SF-539.
Common to all, as to experiment: NCI tumour cell line growth inhibition, 48 h

The structures appear in SMILES notation.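 Following 48 hours of exposure in 96-well plates, responses at five concentrations were used to interpolate endpoints linearly. Here, GI50 denotes the concentration required for 50% inhibition of growth.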 Calls of active or inactive are those of the source. No stated cut-off is given here; in the data, active = GI50 up to about 1.1 µM and inactive = higher.

On to `N/C(S)=N/N=C/c1ncccc1O`, for which the GI50 was 0.766 µM (active) in the test on ACHN; 4.29 µM (inactive) in the test on MDA-MB-231; 30.8 µM (inactive) in the test on Hs-578T; 723 nM (active) in the test on MCF7; 2.32 µM (inactive) in the test with A549; 3.77 µM (inactive) in the test with MDA-N. Also, the GI50 with MOLT-4 was 787 nM (active); in the test on A498, 2.25 µM (inactive); with IGROV-1, 1.55 µM (inactive); in the test on HOP-92, 0.52 µM (active); in the test on NCI/ADR-RES it was 757 nM (active); in the test with NCI-H23, 0.597 µM (active). Besides, the GI50 in the test on UACC-257 is 2.49 µM (inactive); with K562, 1.83 µM (inactive); in the test on SR, 3010 nM (inactive); in the test on CCRF-CEM, 475 nM (active); in the test on RXF 393, 0.843 µM (active); in the test on LXFL 529 it was 2.75 µM (inactive).
On to `O=C1C(Br)=C(c2ccccc2)C(c2ccccc2)=C1c1ccccc1`, for which the GI50 with ACHN was 2.55 µM (inactive); with MDA-MB-231, 1.79 µM (inactive); in the test with Hs-578T it was 13.7 µM (inactive); with MCF7, 2400 nM (inactive); in the test on A549 it was 13.1 µM (inactive); in the test with MDA-N, 2.98 µM (inactive). Moreover, the GI50 in the test with MOLT-4 was 601 nM (active); in the test on A498, 16.1 µM (inactive); with IGROV-1 it was 4.28 µM (inactive); with HOP-92 it was 1.69 µM (inactive); in the test on SK-MEL-5 it was 2.94 µM (inactive); in the test on NCI-H23, 3.64 µM (inactive). Further, the GI50 in the test on UACC-257 was 3.35 µM (inactive); with K562, 1.61 µM (inactive); in the test with SR, 979 nM (active); with CCRF-CEM, 269 nM (active); in the test with RXF 393, 1.99 µM (inactive); in the test on LXFL 529, 1.5 µM (inactive). In the test with SF-539, the GI50 was 3.01 µM (inactive).
For the compound `O=[N+]([O-])C1Cc2ccccc2OC1c1ccccc1` (stereo unspecified), the GI50 in the test with ACHN is 66.7 µM (inactive); in the test on A549 it was > 100 µM (inactive); in the test on MOLT-4 it was 23400 nM (inactive); with A498, > 100 µM (inactive); with IGROV-1, 64.4 µM (inactive); with HOP-92, 83.2 µM (inactive). The GI50 was > 100 µM (inactive) in the test with SK-MEL-5; 92.9 µM (inactive) in the test with NCI-H23; > 100 µM (inactive) in the test with UACC-257; 26.8 µM (inactive) in the test on K562; 15300 nM (inactive) in the test with SR; 30800 nM (inactive) with CCRF-CEM. For the same compound, the GI50 in the test with RXF 393 is 21.8 µM (inactive); in the test on LXFL 529 it was > 100 µM (inactive); in the test with SF-539 it was 31.2 µM (inactive).
As for `COC(=O)C(C(=O)C(=O)Nc1ccc([N+](=O)[O-])cc1)c1nc2cc(C)c(C)cc2nc1O` (stereo unspecified), the GI50 with ACHN is > 100 µM (inactive); in the test on A549 it was > 100 µM (inactive); in the test on MOLT-4 it was > 100000 nM (inactive); with A498 it was > 100 µM (inactive); in the test on IGROV-1, > 100 µM (inactive); in the test on HOP-92, > 100 µM (inactive). In addition, the GI50 with SK-MEL-5 was > 100 µM (inactive); in the test on NCI-H23, > 100 µM (inactive); with UACC-257, > 100 µM (inactive); in the test with K562 it was > 100 µM (inactive); with SR, > 100000 nM (inactive); in the test with CCRF-CEM it was > 100000 nM (inactive). The GI50 in the test on RXF 393, in the test on LXFL 529 and with SF-539 was > 100 µM (inactive) each time.
On to `CC[n+]1c(/C=C/c2ccc(N(CCCl)CCCl)cc2)ccc2cc(NC(=O)/C=C/c3ccccc3)ccc21`, for which the GI50 in the test on ACHN was 0.807 µM (active); in the test on MDA-MB-231 it was 0.32 µM (active); with Hs-578T, 0.0912 µM (active); with MCF7 it was 139 nM (active); with A549, 0.279 µM (active); with MDA-N it was 0.6 µM (active). Besides, the GI50 with MOLT-4 was 286 nM (active); in the test on A498, 10.3 µM (inactive); in the test on IGROV-1, 0.31 µM (active); in the test with HOP-92, 0.251 µM (active); with NCI/ADR-RES, 30900 nM (inactive); with SK-MEL-5, 0.174 µM (active). The GI50 was 0.482 µM (active) in the test with NCI-H23; 0.787 µM (active) with UACC-257; 0.134 µM (active) in the test on K562; 189 nM (active) in the test with SR; 118 nM (active) with CCRF-CEM; 0.315 µM (active) in the test with RXF 393. Also, the values for the GI50 in the test with LXFL 529 and in the test with SF-539 were 0.357 µM (active) and 0.308 µM (active), respectively.
Turning to `COC(=O)C1=C(c2ccc3c(c2)OCO3)OC(c2cc(OC)c(OC)c(OC)c2)C1` (stereo unspecified), the GI50 in the test on ACHN is 6.98 µM (inactive); in the test with A549, 5.77 µM (inactive); in the test on MOLT-4, 6440 nM (inactive); in the test on A498 it was 2.43 µM (inactive); in the test on IGROV-1, 2.75 µM (inactive); in the test on HOP-92, 5.75 µM (inactive). In addition, the GI50 in the test with SK-MEL-5 was 2.49 µM (inactive); with NCI-H23 it was 3.21 µM (inactive); in the test with UACC-257, 7.18 µM (inactive); in the test on K562, 0.883 µM (active); with SR it was 667 nM (active); in the test with CCRF-CEM, 3880 nM (inactive). Further, the GI50 is 2.81 µM (inactive) in the test on RXF 393, 4.79 µM (inactive) with LXFL 529 and 5.11 µM (inactive) with SF-539.
For `COc1cc2c(c(OC)c1OC)-c1ccc(OC)c(=O)cc1[C@@H](NC(=O)c1ccccc1)CC2`, the GI50 was 0.0305 µM (active) in the test with ACHN; 0.0151 µM (active) in the test with MDA-MB-231; < 0.0126 µM (active) in the test with Hs-578T; < 14.6 nM (active) in the test with MCF7; 0.018 µM (active) with A549; < 0.01 µM (active) in the test on MDA-N. Besides, the GI50 was 56.2 nM (active) in the test on MOLT-4; < 0.0121 µM (active) in the test on A498; 0.0146 µM (active) with IGROV-1; 0.0173 µM (active) in the test on HOP-92; 168 nM (active) in the test with NCI/ADR-RES; 0.0107 µM (active) with SK-MEL-5. The GI50 in the test with NCI-H23 is 0.0128 µM (active); in the test on UACC-257, 0.148 µM (active); in the test on K562, < 0.0114 µM (active); with SR, 155 nM (active); with CCRF-CEM it was < 10 nM (active); with RXF 393, 0.0234 µM (active). In addition, the GI50 in the test with LXFL 529 was < 0.01 µM (active).

The record behind these values is ChEMBL document CHEMBL1201862, “PubChem BioAssay data set” (2004).
